Assay results reported in patent US20240101546A1, “HETEROARYL-ACETYLENES, PHARMACEUTICAL COMPOSITIONS THEREOF, AND THEIR THERAPEUTIC APPLICATIONS” (Eubulus Biotherapeutics Inc., priority 2020, published 2024).

tested on: lung cancer cell line NCI-H82; test: Cell proliferation assay, NCI-H82 (CELL-TITER GLO); assay type: cell-based; conditions: Homo sapiens, NCI-H82, 72 h, NCI-H82 cells, 72 h incubation, cell viability by CELL-TITER GLO, top concentration 1 μM; read-out: EC50, Inhibition of NCl-H82 Cell Proliferation
Method: The activity of a compound was determined in a cell proliferation assay using the lung cancer cell line NCI-H82. Cells (1,000 cells per well) were cultured with RPMI1640 in a 384-well tissue culture plate. After incubated overnight, the compound was added at predetermined concentrations, starting with 1 μM and followed by a 3-fold serial dilution. After the cells were incubated for 72 h, cell viability was determined using a CELL-TITER GLO assay. The CELL-TITER GLO reagent (25 μL) was added to each well and the luminescence was measured by a multimode microplate reader after a brief period of shaking. EC50 values were determined for the compound. The results are summarized in Table 1, wherein A represents a value no greater than 200 nM, B represents a value greater than 200 nM but no greater than 1 μM, C represents a value greater than 1 μM but no greater than […], and D represents a value greater than 5 μM.

Compound	EC50
C#Cc1nc(NC(=O)N(C)[C@@H](COC(N)=O)c2ccc(-c3cccnc3C3(C#N)CC3)c(Cl)c2)cs1 [Compound A70, (R)-2-(3-Chloro-4-(2-(1-cyanocyclopropyl)pyridin-3-yl)phenyl)-2-(3-(2-ethynyl-thiazol-4-yl)-1-methylureido)ethyl carbamate]	≤ 200 nM
C#Cc1nc(NC(=O)N[C@@H](CS(C)(=O)=O)c2ccc(-c3cccnc3C3(C#N)CC3)c(Cl)c2)cs1 [Compound A72, (R)-1-(1-(3-Chloro-4-(2-(1-cyanocyclopropyl)pyridin-3-yl)phenyl)-2-(methyl-sulfonyl)ethyl)-3-(2-ethynylthiazol-4-yl)urea]	≤ 200 nM
C#Cc1nc(NC(=O)N[C@@H](CS(N)(=O)=O)c2ccc(-c3cccnc3C3(C#N)CC3)c(Cl)c2)cs1 [Compound A73, (R)-2-(3-Chloro-4-(2-(1-cyanocyclopropyl)pyridin-3-yl)phenyl)-2-(3-(2-ethynyl-thiazol-4-yl)ureido)ethanesulfonamide]	≤ 200 nM
C#Cc1nc(NC(=O)N[C@@H](C(=O)NC)c2ccc(-c3cccnc3C3(C#N)CC3)c(Cl)c2)cs1 [Compound A74, (R)-2-(3-Chloro-4-(2-(1-cyanocyclopropyl)pyridin-3-yl)phenyl)-2-(3-(2-ethynyl-thiazol-4-yl)ureido)-N-methylacetamide]	≤ 200 nM
C#Cc1nc(NC(=O)N[C@@H](COC(N)=O)c2ccc(-c3ccc(F)cc3C3(C#N)CC3)cn2)cs1 [Compound A76, (R)-2-(5-(2-(1-Cyanocyclopropyl)-4-fluorophenyl)pyridin-2-yl)-2-(3-(2-ethynyl-thiazol-4-yl)ureido)ethyl carbamate]	≤ 200 nM
C#Cc1nc(NC(=O)N[C@@H](CO)c2ccc(-c3cc(F)ccc3C3(C#N)CC3)cn2)cs1 [Compound A77, (R)-1-(1-(5-(2-(1-Cyanocyclopropyl)-5-fluorophenyl)pyridin-2-yl)-2-hydroxyethyl)-3-(2-ethynylthiazol-4-yl)urea]	≤ 200 nM
C#Cc1nc(NC(=O)N[C@@H](CO)c2ccc(-c3ccccc3C3CC3(F)F)cn2)cs1 (stereo partly drawn) [Compound A80, 1-((1R)-1-(5-(2-(2,2-Difluorocyclopropyl)phenyl)pyridin-2-yl)-2-hydroxyethyl)-3-(2-ethynylthiazol-4-yl)urea]	≤ 200 nM
C#Cc1nc(NC(=O)N(C)[C@@H](CO)c2ccc(-c3ccc(F)cc3C3CC3(F)F)cn2)cs1 (stereo partly drawn) [Compound A82, 1-((1R)-1-(5-(2-(2,2-Difluorocyclopropyl)-4-fluorophenyl)pyridin-2-yl)-2-hydroxyethyl)-3-(2-ethynylthiazol-4-yl)-1-methylurea]	≤ 200 nM
C#Cc1nc(NC(=O)N[C@@H](COC(N)=O)c2ccc(-c3ccc(F)cc3C3CC3(F)F)cn2)cs1 (stereo partly drawn) [Compound A83, (2R)-2-(5-(2-(2,2-Difluorocyclopropyl)-4-fluorophenyl)pyridin-2-yl)-2-(3-(2-ethynylthiazol-4-yl)ureido)ethyl carbamate]	≤ 200 nM
C#Cc1nnc(NC(=O)N[C@@H](CO)c2ccc(-c3ccc(F)cc3C3CC3(F)F)cn2)s1 (stereo partly drawn) [Compound A85, 1-((1R)-1-(5-(2-(2,2-Difluorocyclopropyl)-4-fluorophenyl)pyridin-2-yl)-2-hydroxyethyl)-3-(5-ethynyl-1,3,4-thiadiazol-2-yl)urea]	≤ 200 nM
C#Cc1nnc(NC(=O)N(C)[C@@H](CO)c2ccc(-c3ccc(F)cc3C3CC3(F)F)cn2)s1 (stereo partly drawn) [Compound A86, 1-((1R)-1-(5-(2-(2,2-Difluorocyclopropyl)-4-fluorophenyl)pyridin-2-yl)-2-hydroxyethyl)-3-(5-ethynyl-1,3,4-thiadiazol-2-yl)-1-methylurea]	≤ 200 nM
C#Cc1nc(NC(=O)N[C@@H](CO)c2ccc(-c3cccc(N4CCCC4)n3)cc2)cs1 [Compound A88, (R)-1-(2-Ethynylthiazol-4-yl)-3-(2-hydroxy-1-(4-(6-(pyrrolidin-1-yl)pyridin-2-yl)phenyl)ethyl)urea]	≤ 200 nM
C#Cc1nc(NC(=O)N[C@@H](CO)c2ccc(-c3cccc(N4CCCC4)n3)cn2)cs1 [Compound A89, (R)-1-(2-Ethynylthiazol-4-yl)-3-(2-hydroxy-1-(6-(pyrrolidin-1-yl)-[2,3′-bipyridin]-6′-yl)ethyl)urea]	≤ 200 nM
C#Cc1nnc(NC(=O)N[C@@H](CO)c2ccc(-c3cccc(N4CCCC4)n3)cc2)s1 [Compound A93, (R)-1-(5-Ethynyl-1,3,4-thiadiazol-2-yl)-3-(2-hydroxy-1-(4-(6-(pyrrolidin-1-yl)-pyridin-2-yl)phenyl)ethyl)urea]	≤ 200 nM
C#Cc1nnc(NC(=O)N(C)[C@@H](COC(N)=O)c2ccc(-c3cccc(N4CCCC4)n3)cc2)s1 [Compound A95, (R)-2-(3-(5-Ethynyl-1,3,4-thiadiazol-2-yl)-1-methylureido)-2-(4-(6-(pyrrolidin-1-yl)pyridin-2-yl)phenyl)ethyl carbamate]	≤ 200 nM
C#Cc1nc(NC(=O)N[C@@H](CO)c2ccc(-c3cccnc3N(C)C)cc2)cs1 [Compound A98, (R)-1-(1-(4-(2-(Dimethylamino)pyridin-3-yl)phenyl)-2-hydroxyethyl)-3-(2-ethynylthiazol-4-yl)urea]	≤ 200 nM
C#Cc1nc(NC(=O)N[C@@H](COC(N)=O)c2ccc(-c3cccnc3N(C)C)cc2)cs1 [Compound A99, (R)-2-(4-(2-(Dimethylamino)pyridin-3-yl)phenyl)-2-(3-(2-ethynylthiazol-4-yl)-ureido)ethyl carbamate]	≤ 200 nM

The remaining lines, values ahead:

EC50	Compound
≤ 200 nM	C#Cc1nnc(NC(=O)N[C@@H](CO)c2ccc(-c3cccnc3C3(C#N)CC3)c(Cl)c2)s1 [Compound A71, (R)-1-(1-(3-Chloro-4-(2-(1-cyanocyclopropyl)pyridin-3-yl)phenyl)-2-hydroxy-ethyl)-3-(5-ethynyl-1,3,4-thiadiazol-2-yl)urea]
≤ 200 nM	C#Cc1nc(NC(=O)N[C@@H](CO)c2ccc(-c3ccc(F)cc3C3(C#N)CC3)cn2)cs1 [Compound A75, (R)-1-(1-(5-(2-(1-Cyanocyclopropyl)-4-fluorophenyl)pyridin-2-yl)-2-hydroxy-ethyl)-3-(2-ethynylthiazol-4-yl)urea]
≤ 200 nM	C#Cc1nc(NC(=O)N[C@@H](CO)c2ccc(-c3c(F)cccc3C3(C#N)CC3)cn2)cs1 [Compound A78, (R)-1-(1-(5-(2-(1-Cyanocyclopropyl)-6-fluorophenyl)pyridin-2-yl)-2-hydroxy-ethyl)-3-(2-ethynylthiazol-4-yl)urea]
≤ 200 nM	C#Cc1nc(NC(=O)N[C@@H](CO)c2ccc(-c3c(F)cc(F)cc3C3(C#N)CC3)cn2)cs1 [Compound A79, (R)-1-(1-(5-(2-(1-Cyanocyclopropyl)-4,6-difluorophenyl)pyridin-2-yl)-2-hydroxyethyl)-3-(2-ethynylthiazol-4-yl)urea]
≤ 200 nM	C#Cc1nc(NC(=O)N[C@@H](CO)c2ccc(-c3ccc(F)cc3C3CC3(F)F)cn2)cs1 (stereo partly drawn) [Compound A81, 1-((1R)-1-(5-(2-(2,2-Difluorocyclopropyl)-4-fluorophenyl)pyridin-2-yl)-2-hydroxyethyl)-3-(2-ethynylthiazol-4-yl)urea]
≤ 200 nM	C#Cc1nc(NC(=O)N(C)[C@@H](COC(N)=O)c2ccc(-c3ccc(F)cc3C3CC3(F)F)cn2)cs1 (stereo partly drawn) [Compound A84, (2R)-2-(5-(2-(2,2-Difluorocyclopropyl)-4-fluorophenyl)pyridin-2-yl)-2-(3-(2-ethynylthiazol-4-yl)-1-methylureido)ethyl carbamate]
≤ 200 nM	C#Cc1nnc(NC(=O)N[C@@H](COC(N)=O)c2ccc(-c3ccc(F)cc3C3CC3(F)F)cn2)s1 (stereo partly drawn) [Compound A87, (2R)-2-(5-(2-(2,2-Difluorocyclopropyl)-4-fluorophenyl)pyridin-2-yl)-2-(3-(5-ethynyl-1,3,4-thiadiazol-2-yl)ureido)ethyl carbamate]
≤ 200 nM	C#Cc1ncc(NC(=O)N[C@@H](COC(N)=O)c2ccc(-c3cccc(N4CCCC4)n3)cn2)s1 [Compound A90, (R)-2-(3-(2-Ethynylthiazol-5-yl)ureido)-2-(6-(pyrrolidin-1-yl)-[2,3′-bipyridin]-6′-yl)ethyl carbamate]
≤ 200 nM	C#Cc1nc(NC(=O)N(C)[C@@H](CO)c2ccc(-c3cccc(N4CCCC4)n3)cn2)cs1 [Compound A91, (R)-3-(2-Ethynylthiazol-4-yl)-1-(2-hydroxy-1-(6-(pyrrolidin-1-yl)-[2,3′-bipyridin]-6′-yl)ethyl)-1-methylurea]
≤ 200 nM	C#Cc1nc(NC(=O)N(C)[C@@H](COC(N)=O)c2ccc(-c3cccc(N4CCCC4)n3)cn2)cs1 [Compound A92, (R)-2-(3-(2-Ethynylthiazol-4-yl)-1-methylureido)-2-(6-(pyrrolidin-1-yl)-[2,3′-bipyridin]-6′-yl)ethyl carbamate]
≤ 200 nM	C#Cc1nnc(NC(=O)N[C@@H](COC(N)=O)c2ccc(-c3cccc(N4CCCC4)n3)cc2)s1 [Compound A94, (R)-2-(3-(5-Ethynyl-1,3,4-thiadiazol-2-yl)ureido)-2-(4-(6-(pyrrolidin-1-yl)-pyridin-2-yl)phenyl)ethyl carbamate]
≤ 200 nM	C#Cc1nnc(NC(=O)N[C@@H](CO)c2ccc(-c3cccc(N4CCCC4)n3)cn2)s1 [Compound A96, (R)-1-(5-Ethynyl-1,3,4-thiadiazol-2-yl)-3-(2-hydroxy-1-(6-(pyrrolidin-1-yl)-[2,3′-bipyridin]-6′-yl)ethyl)urea]
≤ 200 nM	C#Cc1nnc(NC(=O)N[C@@H](COC(N)=O)c2ccc(-c3cccc(N4CCCC4)n3)cn2)s1 [Compound A97, (R)-2-(3-(5-Ethynyl-1,3,4-thiadiazol-2-yl)ureido)-2-(6-(pyrrolidin-1-yl)-[2,3′-bipyridin]-6′-yl)ethyl carbamate]
